{"source": "paper PMC12526212", "about": "“Novel Isolongifolenone-Based Caprolactam Derivatives as Potential Anticancer Agents via the p53/mTOR/Autophagy Pathway” (Molecules, 2025)", "key": {"MCF-7 cells [1]": {"test_system": "MCF-7 cells", "assay": "Monodansylcadaverine (MDC) staining assay for autophagy", "format": "cell-based, human", "conditions": "24 h, compared with control; 3-MA as co-treatment with E10", "experimental": "To investigate whether E10 induced autophagy in MCF-7 cells, we performed Monodansylcadaverine (MDC) staining, transmission electron microscopy (TEM), and Western blot analysis to evaluate autophagy-related markers. MDC is a fluorescent probe commonly used to detect the formation of autophagic vacuoles, as it specifically labels autophagosomes.\nMDC is a staining indicator for the formation of autophagosome. MCF-7 cells were seeded at a density of 2 × 10^5 cells per well in 6-well plates. MCF-7 cells were inoculated into a 6-well plate, and the cells were treated with E10 for 24 h. The treated cells were washed twice with buffer and then stained with MDC (Beijing Solarbio Science & Technology Co., Ltd., Beijing, China) for 40 min. The cells were then detected under a fluorescence microscope (Carl Zeiss, Jena, Germany)."}, "MCF-7 cells [2]": {"test_system": "MCF-7 cells", "assay": "Annexin V/PI apoptosis assay by flow cytometry", "format": "cell-based, human", "conditions": "Figure 6A, in comparison with control", "experimental": "The ability of drugs to induce cancer cell apoptosis is a key indicator of their chemotherapeutic potential. […] To examine the apoptotic effects of E10, an Annexin V-FITC dual-staining assay (with flow cytometric analysis) was performed. As shown in Figure 3A (also Figure 3C), treatment with increasing concentrations of E10 induced a marked elevation in apoptotic cell populations.\nAutophagy has bidirectional regulation effects on cell survival. To confirm the role of autophagy in E10-induced cell death, 3-MA was used as an autophagy blocker.\nMCF-7 cells were seeded at a density of 6 × 10^5 cells per well in 12-well plates and incubated in a 37 °C, 5% CO2 incubator for 24 h. After treatment with different concentrations of compound E10, the cells were washed with PBS two times, collected by trypsin enzymic digestion and centrifugation, and the collected cells were subsequently stained with 5 µL Annexin V-APC (YSRIBIO-C1084) and 5 µL PI for 10 min in the dark conditions. The cell apoptosis was measured with the flow cytometry (BD), and the data were analyzed by flowjo 10.6 software."}}}
{"smiles": "Cn1cnc(N)c2ncnc1-2", "note": "[3-MA, 3-methyladenine, reference compound]", "values": [{"measurement": "MDC staining, autophagosome formation", "setting": "MCF-7 cells [1]", "value": "marked reduction in fluorescence intensity"}, {"measurement": "cell apoptosis with or without autophagy blocker 3-MA", "setting": "MCF-7 cells [2]", "value": "reversed E10-induced apoptosis"}]}
